Laboratory results published in patent US20230133958A1, “COMPOUNDS USEFUL IN MODULATING EGFR AND PI3K” (Mekanistic Therapeutics LLC, priority 2021, published 2023).

Experiments:
[1] = target: DNA-PK (Homo sapiens, UniProt P78527); assay: Z'-LYTE / Adapta biochemical kinase assay, DNA-PK; conditions: for inhibition at 0.1 µM: concentration of 100 nM/liter, read-out: Percent Inhibition of target enzymes, DNA-PK
Text: The Z′-LYTE® biochemical assay employs a fluorescence-based, coupled-enzyme format and is based on the differential sensitivity of phosphorylated and non-phosphorylated peptides to proteolytic cleavage. The peptide substrate is labeled with two fluorophores—one at each end—that make up a FRET pair. In the primary reaction, the kinase transfers the gamma-phosphate of ATP to a single tyrosine, serine or threonine residue in a synthetic FRET-peptide. In the secondary reaction, a site-specific protease recognizes and cleaves non-phosphorylated FRET-peptides. Phosphorylation of FRET-peptides suppresses cleavage by the Development Reagent. Cleavage disrupts FRET between the donor (i.e., coumarin) and acceptor (i.e., fluorescein) fluorophores on the FRET-peptide, whereas uncleaved, phosphorylated FRET-peptides maintain FRET. A ratiometric method, which calculates the ratio (the Emission Ratio) of donor emission to acceptor emission after excitation of the donor fluorophore at 400 nm, is used to quantitate reaction progress.
A significant benefit of this ratiometric method for quantitating reaction progress is the elimination of well-to-well variations in FRET-peptide concentration and signal intensities. As a result, the assay yields very high Z′-factor values (>0.7) at a low percent phosphorylation.
Both cleaved and uncleaved FRET-peptides contribute to the fluorescence signals and therefore to the Emission Ratio. The extent of phosphorylation of the FRET-peptide can be calculated from the Emission Ratio. The Emission Ratio will remain low if the FRET-peptide is phosphorylated (i.e., no kinase inhibition) and will be high if the FRET-peptide is non-phosphorylated (i.e., kinase inhibition).
Enzyme: The ADAPTA universal kinase assay is a homogenous, fluorescent based immunoassay for the detection of ADP. In contrast to ATP depletion assays, the ADAPTA assay is extremely sensitive to ADP formation such that a majority of the signal change occurs in the first 10-20% conversion of ATP to ADP. This makes the ADAPTA universal kinase assay ideally suited for use with low activity kinases.
The principle of the ADAPTA universal kinase assay is outlined below. The assay itself can be divided into two phases: a kinase reaction phase, and an ADP detection phase. In the kinase reaction phase, all components required for the kinase reaction are added to the well, and the reaction is allowed to incubate for 60 minutes. After the reaction, a detection solution consisting of a europium labeled anti-ADP antibody, an Alexa Fluor® 647 labeled ADP tracer, and EDTA (to stop the kinase reaction) is added to the assay well. ADP formed by the kinase reaction (in the absence of an inhibitor) will displace the Alexa Fluor® 647 labeled ADP tracer from the antibody, resulting in a decrease in the TR-FRET signal. In the presence of an inhibitor, the amount of ADP formed by the kinase reaction is reduced, and the resulting intact antibody-tracer interaction results in a high TR-FRET signal.
Test Compounds: The Test Compounds are screened in 1% DMSO (final) in the well. For 10 point titrations, 3-fold serial dilutions are conducted from the starting concentration of the customer’s choosing.
Peptide/Kinase Mixtures: All Peptide/Kinase Mixtures are diluted to a 2X working concentration in the appropriate Kinase Buffer.
ATP Solution: All ATP Solutions are diluted to a 4X working concentration in Kinase Buffer (50 mM HEPES pH 7.5, 0.01% BRIJ-35, 10 mM MgCl2,1 mM EGTA). ATP Km apparent is previously determined using a Z′-LYTE® assay.
Development Reagent Solution: The Development Reagent is diluted in Development Buffer.
Assay Protocol: Bar-coded Corning, low volume NBS, black 384-wellplate (Corning Cat. #4514) 1. 2.5 µL - 4X Test Compound or 100 nL 100X plus 2.4 µL kinase buffer. 2. 5 µL - 2X Peptide/Kinase Mixture. 3. 2.5 µL - 4X ATP Solution. 4. 30-second plate shake. 5. 60-minute Kinase Reaction incubation at room temperature. 6. 5 µL - Development Reagent Solution. 7. […]

[2] = test system: MDA-MB-231/ATCC; assay: NCI COMPARE panel (SRB growth inhibition), MDA-MB-231/ATCC; format: cell-based; conditions: Homo sapiens, Breast Cancer, 48 h
Method: (§1) The human tumor cell lines of the cancer screening panel are grown in RPMI 1640 medium containing 5% fetal bovine serum and 2 mM L-glutamine. For a typical screening experiment, cells are inoculated into 96 well microtiter plates in 100 µL at plating densities ranging from 5,000 to 40,000 cells/well depending on the doubling time of individual cell lines. After cell inoculation, the microtiter plates are incubated at 37° C., 5% CO2, 95% air and 100% relative humidity for 24 h prior to addition of experimental drugs.
(§2) After 24 h, two plates of each cell line are fixed in situ with TCA, to represent a measurement of the cell population for each cell line at the time of drug addition (Tz). Experimental drugs are solubilized in dimethyl sulfoxide at 400-fold the desired final maximum test concentration and stored frozen prior to use. […]
(§3) Following drug addition, the plates are incubated for an additional 48 h at 37° C., 5 % CO2, 95% air, and 100% relative humidity. […] Bound stain is subsequently solubilized with 10 mM trizma base, and the absorbance is read on an automated plate reader at a wavelength of 515 nm. […] Using the seven absorbance measurements [time zero, (Tz), control growth, (C), and test growth in the presence of drug at the five concentration levels (Ti)], the percentage growth is calculated at each of the drug concentrations levels. Percentage growth inhibition is calculated as: […]

[3] = test system: MDA-MB-435; assay: NCI COMPARE panel (SRB growth inhibition), MDA-MB-435; format: cell-based; conditions: Homo sapiens; Melanoma, MDA-MB-435, 48 h
Method: as §1, §2, §3

[4] = test system: DU-145; assay: NCI COMPARE panel (SRB growth inhibition), DU-145; format: cell-based; conditions: Homo sapiens; Prostate Cancer, DU-145, 48 h
Method: as §1, §2, §3

Row | SMILES | IC50 ([1]; DNA-PK) [nM] | inhibition at 0.1 µM [1] [%] | GI50 [2] [nM] | GI50 [3] [nM] | GI50 [4] [nM]
1 | CS(=O)(=O)Nc1cc(-c2ccc3ncnc(Nc4cccc(Cl)c4F)c3c2)cnc1Cl [Compound 6, N-[2-chloro-5-[4-(3-chloro-2-fluoro-anilino)quinazolin-6-yl]-3-pyridyl] methanesulfonamide] | ≤ 2 | > 90 | 125 to 250 | 125 to 250 | 125 to 250
2 | CS(=O)(=O)Nc1cc(-c2ccc3ncc(C#N)c(Nc4cccc(Cl)c4F)c3c2)cnc1Cl [Compound 10, N-[2-chloro-5-[4-(3-chloro-2-fluoro-anilino)-3-cyano-6-quinolyl]-3-pyridyl]methanesulfonamide] | – | > 90 | > 250 | 125 to 250 | 125 to 250
